# Experimental data taken from PubChem BioAssay (NCI).
# “And” between values parts separate entries of the source, which are not always exact repeats. Equal entries are not always repeated.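 Values below derive from 48-hour exposures of cells grown in 96-well plates, with endpoints linearly interpolated between the two concentrations bracketing the appropriate inhibition level. GI50: concentration for 50% inhibition of growth. TGI is the concentration that stops growth completely.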
# Key:
# Assay in all cases: NCI tumour cell line growth inhibition, 48 h
# SF-268 CNS = tested on: SF-268 CNS
# M14 melanoma = tested on: M14 melanoma
# SNB-19 CNS = tested on: SNB-19 CNS
# DMS 273 small cell lung = tested on: DMS 273 small cell lung
# SK-MEL-28 melanoma = tested on: SK-MEL-28 melanoma
# ACHN renal = tested on: ACHN renal
# KM12 colon = tested on: KM12 colon
# OVCAR-8 ovarian = tested on: OVCAR-8 ovarian
# CCRF-CEM leukemia = tested on: CCRF-CEM leukemia
# UACC-257 melanoma = tested on: UACC-257 melanoma
# SNB-75 CNS = tested on: SNB-75 CNS
# XF 498 CNS = tested on: XF 498 CNS
# HOP-92 NSCLC = tested on: HOP-92 NSCLC
# 786-0 renal = tested on: 786-0 renal
# SN12C renal = tested on: SN12C renal
# CAKI-1 renal = tested on: CAKI-1 renal
# OVCAR-3 ovarian = tested on: OVCAR-3 ovarian
# OVCAR-5 ovarian = tested on: OVCAR-5 ovarian
# NCI-H226 lung = tested on: NCI-H226 lung
# COLO 205 colon = tested on: COLO 205 colon
# SF-295 CNS = tested on: SF-295 CNS
# A549 NSCLC = tested on: A549 NSCLC
# NCI-H522 lung = tested on: NCI-H522 lung
# NCI-H460 lung = tested on: NCI-H460 lung
# SF-539 CNS = tested on: SF-539 CNS
# HOP-62 NSCLC = tested on: HOP-62 NSCLC
# UO-31 renal = tested on: UO-31 renal
# SK-MEL-5 melanoma = tested on: SK-MEL-5 melanoma
# NCI-H23 lung = tested on: NCI-H23 lung
# IGROV1 ovarian = tested on: IGROV1 ovarian
# SW-620 colon = tested on: SW-620 colon
# HCT-15 colon = tested on: HCT-15 colon
# UACC-62 melanoma = tested on: UACC-62 melanoma
# TK-10 renal = tested on: TK-10 renal
# EKVX NSCLC = tested on: EKVX NSCLC
# K-562 leukemia = tested on: K-562 leukemia
# OVCAR-4 ovarian = tested on: OVCAR-4 ovarian
# SR leukemia = tested on: SR leukemia
# MOLT-4 leukemia = tested on: MOLT-4 leukemia
# LOX IMVI melanoma = tested on: LOX IMVI melanoma
# HL-60(TB) leukemia = tested on: HL-60(TB) leukemia
# RPMI-8226 leukemia = tested on: RPMI-8226 leukemia
# RXF 393 renal = tested on: RXF 393 renal
# SK-OV-3 ovarian = tested on: SK-OV-3 ovarian
# HT29 colon = tested on: HT29 colon
# SK-MEL-2 melanoma = tested on: SK-MEL-2 melanoma
# HCT-116 colon = tested on: HCT-116 colon
# A498 renal = tested on: A498 renal
# SNB-78 CNS = tested on: SNB-78 CNS
# LXFL 529 NSCLC = tested on: LXFL 529 NSCLC
# U251 CNS = tested on: U251 CNS
# KM20L2 colon = tested on: KM20L2 colon
# M19-MEL melanoma = tested on: M19-MEL melanoma
# DLD-1 colon = tested on: DLD-1 colon
# HCC-2998 colon = tested on: HCC-2998 colon
# DMS 114 small cell lung = tested on: DMS 114 small cell lung
# MALME-3M melanoma = tested on: MALME-3M melanoma
compound,measurement,setting,value
CN(C)C(=O)Nc1c([N+](=O)[O-])cc(C(F)(F)F)cc1[N+](=O)[O-],TGI,SF-268 CNS,> 100 µM
same,TGI,M14 melanoma,> 100 µM
same,TGI,SNB-19 CNS,> 100 µM
same,TGI,DMS 273 small cell lung,> 100 µM
same,TGI,SK-MEL-28 melanoma,> 100 µM
same,TGI,ACHN renal,> 100 µM
same,TGI,KM12 colon,> 100 µM
same,TGI,OVCAR-8 ovarian,> 100 µM
same,TGI,CCRF-CEM leukemia,> 100 µM
same,TGI,UACC-257 melanoma,84.3 µM
same,TGI,SNB-75 CNS,> 100 µM
same,TGI,XF 498 CNS,80.8 µM
same,TGI,HOP-92 NSCLC,> 100 µM
same,TGI,786-0 renal,> 100 µM
same,TGI,SN12C renal,> 100 µM
same,TGI,CAKI-1 renal,> 100 µM
same,TGI,OVCAR-3 ovarian,53.7 µM
same,TGI,OVCAR-5 ovarian,> 100 µM
same,TGI,NCI-H226 lung,> 100 µM
same,TGI,COLO 205 colon,69.3 µM
same,TGI,SF-295 CNS,> 100 µM
same,TGI,A549 NSCLC,> 100 µM
same,TGI,NCI-H522 lung,77.5 µM
same,TGI,NCI-H460 lung,> 100 µM
same,TGI,SF-539 CNS,> 100 µM
same,TGI,HOP-62 NSCLC,> 100 µM
same,TGI,UO-31 renal,> 100 µM
same,TGI,SK-MEL-5 melanoma,> 100 µM
same,TGI,NCI-H23 lung,> 100 µM
same,TGI,IGROV1 ovarian,> 100 µM
same,TGI,SW-620 colon,> 100 µM
same,TGI,HCT-15 colon,> 100 µM
same,TGI,UACC-62 melanoma,> 100 µM
same,TGI,TK-10 renal,> 100 µM
same,TGI,EKVX NSCLC,> 100 µM
same,TGI,K-562 leukemia,> 100 µM
same,TGI,OVCAR-4 ovarian,> 100 µM
same,TGI,SR leukemia,> 100 µM
same,TGI,MOLT-4 leukemia,> 100 µM
same,TGI,LOX IMVI melanoma,> 100 µM
same,TGI,HL-60(TB) leukemia,48 µM
same,TGI,RPMI-8226 leukemia,> 100 µM
same,TGI,RXF 393 renal,> 100 µM
same,TGI,SK-OV-3 ovarian,> 100 µM
same,TGI,HT29 colon,> 100 µM
same,TGI,SK-MEL-2 melanoma,> 100 µM
same,TGI,HCT-116 colon,> 100 µM
same,TGI,A498 renal,> 100 µM
same,TGI,SNB-78 CNS,> 100 µM
same,TGI,LXFL 529 NSCLC,> 100 µM
same,TGI,U251 CNS,> 100 µM
same,TGI,KM20L2 colon,59.3 µM
CCCCCC(=O)N[C@H]1CCc2cc(OC)c(OC)c(OC)c2-c2ccc(SC)c(=O)cc21,TGI,M19-MEL melanoma,50.7 µM
same,TGI,SF-268 CNS,24.1 µM
same,GI50,SK-MEL-28 melanoma,25.1 µM
same,TGI,SK-MEL-28 melanoma,> 100 µM
same,TGI,ACHN renal,36 µM
same,TGI,CCRF-CEM leukemia,34.8 µM
same,TGI,UACC-257 melanoma,33.4 µM
same,TGI,DLD-1 colon,> 100 µM
same,TGI,XF 498 CNS,6.04 µM
same,TGI,HOP-92 NSCLC,1.17 µM
same,TGI,786-0 renal,11.6 µM
same,TGI,SN12C renal,19 µM
same,TGI,CAKI-1 renal,> 100 µM
same,TGI,OVCAR-3 ovarian,0.0354 µM
same,TGI,OVCAR-5 ovarian,> 100 µM
same,TGI,COLO 205 colon,0.0285 µM
same,TGI,A549 NSCLC,> 100 µM
same,TGI,SF-539 CNS,0.0374 µM
same,TGI,HOP-62 NSCLC,49.7 µM
same,TGI,SK-MEL-5 melanoma,0.0484 µM
same,TGI,SW-620 colon,> 100 µM
same,TGI,HCT-15 colon,0.0646 µM
same,TGI,UACC-62 melanoma,29.3 µM
same,TGI,TK-10 renal,32.9 µM
same,TGI,HCC-2998 colon,0.0549 µM
same,TGI,EKVX NSCLC,> 100 µM
same,TGI,K-562 leukemia,11.2 µM
same,TGI,OVCAR-4 ovarian,> 100 µM
same,TGI,MOLT-4 leukemia,> 100 µM
same,TGI,SK-OV-3 ovarian,0.0811 µM
same,TGI,HT29 colon,0.0755 µM and 0.131 µM
same,TGI,HCT-116 colon,0.0913 µM and 0.0136 µM
same,TGI,A498 renal,0.0449 µM
same,TGI,SNB-78 CNS,> 100 µM
same,TGI,LXFL 529 NSCLC,17.3 µM
same,TGI,KM20L2 colon,0.0354 µM
CC[N+](CC)(CC)Cc1cc2ccccc2n1C(=O)OC,TGI,M19-MEL melanoma,> 100 µM
same,TGI,SF-268 CNS,> 100 µM
same,TGI,M14 melanoma,> 100 µM
same,TGI,SNB-19 CNS,> 100 µM
same,TGI,DMS 273 small cell lung,> 100 µM
same,TGI,SK-MEL-28 melanoma,> 100 µM
same,TGI,ACHN renal,> 100 µM
same,TGI,KM12 colon,> 100 µM
same,TGI,OVCAR-8 ovarian,> 100 µM
same,TGI,CCRF-CEM leukemia,> 100 µM
same,TGI,UACC-257 melanoma,> 100 µM
same,TGI,DLD-1 colon,> 100 µM
same,TGI,SNB-75 CNS,> 100 µM
same,TGI,XF 498 CNS,> 100 µM
same,TGI,HOP-92 NSCLC,> 100 µM
same,TGI,786-0 renal,> 100 µM
same,TGI,CAKI-1 renal,> 100 µM
same,TGI,OVCAR-3 ovarian,> 100 µM
same,TGI,DMS 114 small cell lung,> 100 µM
same,TGI,OVCAR-5 ovarian,> 100 µM
same,TGI,NCI-H226 lung,> 100 µM
same,TGI,COLO 205 colon,> 100 µM
same,TGI,SF-295 CNS,> 100 µM
same,TGI,A549 NSCLC,> 100 µM
same,TGI,NCI-H522 lung,> 100 µM
same,TGI,NCI-H460 lung,> 100 µM
same,TGI,SF-539 CNS,> 100 µM
same,TGI,HOP-62 NSCLC,> 100 µM
same,TGI,UO-31 renal,> 100 µM
same,TGI,SK-MEL-5 melanoma,> 100 µM
same,TGI,NCI-H23 lung,> 100 µM
same,TGI,IGROV1 ovarian,> 100 µM
same,TGI,SW-620 colon,> 100 µM
same,TGI,HCT-15 colon,> 100 µM
same,TGI,UACC-62 melanoma,> 100 µM
same,TGI,TK-10 renal,> 100 µM
same,TGI,HCC-2998 colon,> 100 µM
same,TGI,K-562 leukemia,> 100 µM
same,TGI,OVCAR-4 ovarian,> 100 µM
same,TGI,SR leukemia,> 100 µM
same,TGI,MOLT-4 leukemia,> 100 µM
same,TGI,HL-60(TB) leukemia,> 100 µM
same,TGI,RPMI-8226 leukemia,> 100 µM
same,TGI,HT29 colon,> 100 µM
same,TGI,SK-MEL-2 melanoma,> 100 µM
same,TGI,HCT-116 colon,> 100 µM
same,TGI,LXFL 529 NSCLC,> 100 µM
same,TGI,MALME-3M melanoma,> 100 µM
same,TGI,U251 CNS,> 100 µM
same,TGI,KM20L2 colon,> 100 µM
